Consider 25 molecules from US7803801B2, “Aminopyridine compounds having Syk inhibitory activity” (Japan Tobacco, Inc., priority 2005, dated 2010).

The target of assay [1] is GST-Syk Full Protein (human) (Homo sapiens, UniProt P43405). The assay can be described thus: Syk kinase inhibition test (HTRF method). Type of assay: biochemical. An outline of the steps: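 Human GST-Syk full-length (6.4 nM) phosphorylated biotin-EDPDYEWPSA-NH2 (250 nM) with 100 μM ATP in HEPES pH 7.0/MgCl2 buffer, 2% DMSO, 30 min at room temperature. EDTA stop, then HTRF detection (streptavidin-XL665, Eu anti-phosphotyrosine) after 1 h; 665/620 ratio read.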
On the technique in general: In TR-FRET formats the signal depends on donor and acceptor labels being close together.

For assay [2], the system named is cultured human mast cells. In words: Degranulation inhibition test using cultured human mast cells (IgE cross-linking, β-Hexosaminidase release). It is filed as cell-based. Particulars: Mast cell, cultured human mast cells, read-out: human degranulation ave. IC50. A digest of the protocol: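 CD34+ cord-blood cells cultured ≥8 weeks with SCF/IL-6/IL-3; FcεRI primed 5 days with rhIL-4 (1 ng/mL) and hIgE (0.5 μg/mL). Compound (0.1% DMSO) preincubated 10 min at 37 °C, then anti-IgE (final 10 μg/mL) 30 min; released β-hexosaminidase read at 405 nm versus total lysate, IC50 (M).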

The mark [3] stands for this setting: Tables 1-x, compounds A, read-out: sykHTRF ave IC50.
Setting [4] is: HTRF, 100 μM ATP, 30 min room temperature, average, read-out: sykHTRF ave IC50.
Where [5] appears, read: anti-hIgE stimulation, β-Hexosaminidase index, average.
The mark [6] stands for this setting: Tables 2-x, thiophene compounds B, read-out: sykHTRK ave IC50.
[7] abbreviates: Tables 2-x, thiophene compounds B.

The structures appear in SMILES notation. Where a name gives a salt, the structure may show the parent alone. Read-outs that look alike come from different tables or passages of the source.

Take `Cc1ccnc(Nc2cccc(-c3cnc(N4CCC[C@@H](C(N)=O)C4)s3)n2)c1` [Compound A-533, (R)-1-{5-[6-(4-methylpyridin-2-ylamino)pyridin-2-yl]thiazol-2-yl}piperidine-3-carboxamide]: the IC50 (usually the concentration at which inhibition is half-maximal) in assay [1] (setting [3]) is under 100 nM; in assay [2] (Tables 1-x, compounds A), 100 to 1000 nM.

Take `COc1ccc(CCc2ncc(-c3cccc(Nc4cc(C)ccn4)n3)s2)cc1` [Compound A-137]: the IC50 in assay [1] (setting [4]) is 100 to 1000 nM; in assay [2] (setting [5]) it was over 1000 nM.

With `CC(=O)c1ccc(-c2cccc(Nc3nccc(C)c3[N+](=O)[O-])n2)s1` [Compound B-62], the IC50 in assay [1] (setting [6]) and in assay [2] (setting [7]) was over 1000 nM in each case.

Turning to `Cc1ccnc(Nc2cccc(-c3cnc(CNC(=O)NCCO)s3)n2)c1` [Compound A-253], the IC50 in assay [1] (setting [4]) and in assay [2] (setting [5]) was 100 to 1000 nM in each case.

`CC(=O)c1ccc(-c2cccc(Nc3cc(C(N)=O)ccn3)n2)s1` [Compound B-65]: the IC50 in assay [1] (setting [6]) is 100 to 1000 nM; in assay [2] (setting [7]), over 1000 nM.

On to `Cc1ccnc(Nc2cccc(-c3cnc(CNC(=O)c4c[nH]cn4)s3)n2)c1` [Compound A-396], for which the IC50 in assay [1] (setting [3]) was 100 to 1000 nM; in assay [2] (Tables 1-x, compounds A), over 1000 nM.

Consider `Cc1ccnc(Nc2cccc(-c3cnc(CN4C(=O)CNCC4=O)s3)n2)c1` [Compound A-415], for which the IC50 in assay [1] (setting [3]) lay within 100 to 1000 nM; in assay [2] (Tables 1-x, compounds A), 100 to 1000 nM.

For the molecule `CNC(=O)COCC1CCCN(c2ncc(-c3cccc(Nc4cc(C)ccn4)n3)s2)C1` (centres unmarked) [Compound A-502, N-methyl-2-(1-{5-[6-(4-methylpyridin-2-ylamino)pyridin-2-yl]thiazol-2-yl}piperidin-3-ylmethoxy)acetamide], the IC50 was under 100 nM in assay [1] (setting [3]) and 100 to 1000 nM in assay [2] (Tables 1-x, compounds A).

For `COCCNC(=O)C1CCN(c2ncc(-c3cccc(Nc4cc(C)ccn4)n3)s2)CC1` [Compound A-435], the IC50 in assay [1] (setting [3]) is 100 to 1000 nM; in assay [2] (Tables 1-x, compounds A), over 1000 nM.

As to `CN(c1ncc(-c2cccc(Nc3cc(Cl)ccn3)n2)s1)C1CCN(C(=O)CO)CC1` [Compound A-537, 1-[4-(N-{5-[6-(4-chloropyridin-2-ylamino)pyridin-2-yl]thiazol-2-yl}-N-methylamino)piperidin-1-yl]-2-hydroxyethanone], the IC50 in assay [1] (setting [3]) is under 100 nM; in assay [2] (Tables 1-x, compounds A), 100 to 1000 nM.

Regarding `CC(=O)N(C)[C@@H](Cc1ccc(O)cc1)c1ncc(-c2cccc(Nc3cc(C)ccn3)n2)s1` [Compound A-376], the IC50 in assay [1] (setting [3]) lay in the range of 100 to 1000 nM; in assay [2] (Tables 1-x, compounds A) it was 100 to 1000 nM.

As for `Cc1ccnc(Nc2cccc(-c3cnc(CC(=O)OC(C)(C)C)s3)n2)c1` [Compound A-222], the figures for the IC50 in assay [1] (setting [4]) and in assay [2] (setting [5]) were 100 to 1000 nM and over 1000 nM, respectively.

Consider `Cc1ccnc(Nc2cccc(-c3cnc(CNC(=O)NCC(=O)O)s3)n2)c1` [Compound A-254], for which the IC50 in assay [1] (setting [4]) is 100 to 1000 nM; in assay [2] (setting [5]), over 1000 nM.

On to `Cc1ccnc(Nc2cccc(-c3cnc(N4CCC(C(=O)O)C4)s3)n2)c1` (centres unmarked) [Compound A-576, 1-{5-[6-(4-methylpyridin-2-ylamino)pyridin-2-yl]thiazol-2-yl}pyrrolidine-3-carboxylic acid dihydrochloride], for which the IC50 in assay [1] (setting [3]) is under 100 nM; in assay [2] (Tables 1-x, compounds A) it was over 1000 nM.

As for `Cc1ccnc(Nc2cccc(-c3cnc(CCCCC(=O)NS(C)(=O)=O)s3)n2)c1` [Compound A-171], the IC50 in assay [1] (setting [4]) is 100 to 1000 nM; in assay [2] (setting [5]) it was over 1000 nM.

With `Cc1ccnc(Nc2cccc(-c3cnc([C@H]4CC[C@H](C(=O)N5CCNCC5)CC4)s3)n2)c1` [Compound A-176, (trans-4-{5-[6-(4-methylpyridin-2-ylamino)pyridin-2-yl]thiazol-2-yl}cyclohexyl)-(piperazin-1-yl)methanone], the values for the IC50 in assay [1] (setting [4]) and in assay [2] (setting [5]) were under 100 nM and over 1000 nM, respectively.

Regarding `Cc1ccnc(Nc2cccc(-c3cnc([C@H]4CC[C@H](C(=O)N5CCC(O)C5)CC4)s3)n2)c1` (stereo partly drawn) [Compound A-282, (3-hydroxypyrrolidin-1-yl)-(trans-4-{5-[6-(4-methylpyridin-2-ylamino)pyridin-2-yl]thiazol-2-yl}cyclohexyl)methanone], the results for the IC50 in assay [1] (setting [4]) and in assay [2] (setting [5]) were under 100 nM and 100 to 1000 nM, respectively.

For `CC(=O)N[C@@H](Cc1ccccc1)c1ncc(-c2cccc(Nc3cc(C)ccn3)n2)s1` [Compound A-41], the IC50 in assay [1] (setting [4]) was 100 to 1000 nM; in assay [2] (setting [5]), over 1000 nM.

As for `Cc1ccnc(Nc2cccc(-c3cnc(N(C)CC(=O)NCCC(=O)O)s3)n2)c1` [Compound A-570, 3-[2-(N-methyl-N-{5-[6-(4-methylpyridin-2-ylamino)pyridin-2-yl]thiazol-2-yl}amino)acetylamino]propionic acid dihydrochloride], the IC50 in assay [1] (setting [3]) was under 100 nM; in assay [2] (Tables 1-x, compounds A), over 1000 nM.

With `Cc1ccnc(Nc2cccc(-c3cnc([C@@H]4COC(=O)N4)s3)n2)c1` [Compound A-14, (S)-4-{5-[6-(4-methylpyridin-2-ylamino)pyridin-2-yl]thiazol-2-yl}oxazolidin-2-one], the results for the IC50 in assay [1] (setting [4]) and in assay [2] (setting [5]) were under 100 nM and 100 to 1000 nM, respectively.

On to `Cc1ccnc(Nc2cccc(-c3cnc(COCC(=O)N4CCNC(=O)C4)s3)n2)c1` [Compound A-370, 4-(2-{5-[6-(4-methylpyridin-2-ylamino)pyridin-2-yl]thiazol-2-ylmethoxy}acetyl)piperazin-2-one], for which the IC50 in assay [1] (setting [4]) is under 100 nM; in assay [2] (setting [5]), 100 to 1000 nM.

In the case of `Cc1ccnc(Nc2cccc(-c3cnc(CNc4ccc(CC(=O)N5CCC(O)CC5)cc4)s3)n2)c1` [Compound A-278], the IC50 in assay [1] (setting [4]) is 100 to 1000 nM; in assay [2] (setting [5]), over 1000 nM.

For the molecule `COc1ccnc(Nc2cccc(-c3cnc([C@H](C)N)s3)n2)c1` [Compound A-76], the IC50 in assay [1] (setting [4]) and in assay [2] (setting [5]) was 100 to 1000 nM throughout.

As for `Cc1ccnc(Nc2cccc(-c3cnc(C4CCC(O)CC4)s3)n2)c1` (centres unmarked) [Compound A-73, 4-{5-[6-(4-methylpyridin-2-ylamino)pyridin-2-yl]thiazol-2-yl}cyclohexanol], the results for the half-inhibitory concentration (IC50) in assay [1] (setting [4]) and in assay [2] (setting [5]) were under 100 nM and 100 to 1000 nM, respectively.

Regarding `Cc1ccnc(Nc2cccc(-c3cnc(N4CCN(C)C(=O)C4)s3)n2)c1` [Compound A-1, 1-methyl-4-{5-[6-(4-methylpyridin-2-ylamino)pyridin-2-yl]thiazol-2-yl}piperazin-2-one], the IC50 in assay [1] (setting [4]) and in assay [2] (setting [5]) was 100 to 1000 nM in each case.
